The text below walks through data of PubChem BioAssay AID250 (DTP/NCI, 2004).

Where “and” joins values, the source holds several entries; their conditions need not be identical. Equal values may be shown once. Inconclusive results and toxic doses are left out.

The test relates to BDF1 mice, L1210 leukemia sc, survival T/C. The experiment in a line: NCI In Vivo Anticancer Drug Screen. Data for tumor model L1210 Leukemia (subcutaneous) in B6D2F1 (BDF1) mice. Particulars: endpoint: median survival time, higher = longer survival. The method in brief:
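Mice carrying transplanted tumors received test compounds, and survival or tumor size was measured. Values are the treated-group measurement (T) divided by that of the vehicle-treated control group (C).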

Regarding `O=c1[nH]c(=O)n(C2CC(O)C(CO)O2)cc1F` (stereo unspecified), the T/C is, setting by setting: (dose: 4.0 mg/kg/injection, schedule: Q01DX Z (sc), vehicle: saline) 100 % of control; (dose: 5.0 mg/kg/injection, schedule: Q01DX009 (ip), vehicle: water) 100 % of control; (dose: 5.0 mg/kg/injection, schedule: Q01DX009 (sc), vehicle: water) 101 % of control; (dose: 8.0 mg/kg/injection, schedule: Q01DX Z (sc), vehicle: saline) 100 % of control; (dose: 10.0 mg/kg/injection, schedule: Q01DX009 (ip), vehicle: water) 97 % of control; (dose: 10.0 mg/kg/injection, schedule: Q01DX009 (sc), vehicle: water) 98 % of control. Moreover, the T/C runs as follows: (dose: 16.0 mg/kg/injection, schedule: Q01DX Z (sc), vehicle: saline) 111 % of control; (dose: 20.0 mg/kg/injection, schedule: Q01DX009 (ip), vehicle: water) 101 % of control; (dose: 20.0 mg/kg/injection, schedule: Q01DX009 (sc), vehicle: water) 104 % of control; (dose: 23.0 mg/kg/injection, schedule: Q01DX Z (sc), vehicle: saline) 100 % of control; (dose: 23.3 mg/kg/injection, schedule: Q01DX Z (sc), vehicle: saline) 104 % of control; (dose: 32.0 mg/kg/injection, schedule: Q01DX Z (sc), vehicle: saline) 111 % of control. The T/C (dose: 38.9 mg/kg/injection, schedule: Q01DX Z (sc), vehicle: saline) is 91 % of control; the T/C (dose: 39.0 mg/kg/injection, schedule: Q01DX Z (sc), vehicle: saline) was 100 % of control; the T/C (dose: 40.0 mg/kg/injection, schedule: Q01DX009 (ip), vehicle: water) was 110 % of control; the T/C (dose: 40.0 mg/kg/injection, schedule: Q01DX009 (sc), vehicle: water) is 121 % of control; the T/C (dose: 50.0 mg/kg/injection, schedule: Q01DX009 (sc), vehicle: water) was 100 % of control; the T/C (dose: 64.0 mg/kg/injection, schedule: Q01DX Z (sc), vehicle: saline) is 105 % of control. Moreover, the T/C is, setting by setting: (dose: 64.8 mg/kg/injection, schedule: Q01DX Z (sc), vehicle: saline) 100 % of control; (dose: 65.0 mg/kg/injection, schedule: Q01DX Z (sc), vehicle: saline) 100 % of control and 105 % of control; (dose: 80.0 mg/kg/injection, schedule: Q01DX009 (ip), vehicle: water) 124 % of control; (dose: 100.0 mg/kg/injection, schedule: Q01DX009 (sc), vehicle: water) 110 % of control; (dose: 200.0 mg/kg/injection, schedule: Q01DX009 (sc), vehicle: water) 150 % of control; (dose: 256.0 mg/kg/injection, schedule: Q01DX Z (sc), vehicle: saline) 161 % of control. Moreover, where the note is “dose: 400.0 mg/kg/injection, schedule: Q01DX009 (sc), vehicle: water”, the T/C is 153 % of control.
Regarding `Nc1nc(=S)c2ncn(C3CC(O)C(CO)O3)c2[nH]1` (stereo unspecified), the T/C was 160 % of control (dose: 9.0 mg/kg/injection, schedule: Q02DX005 (sc), vehicle: saline); 177 % of control (dose: 12.5 mg/kg/injection, schedule: Q02DX005 (sc), vehicle: saline); 162 % of control (dose: 18.0 mg/kg/injection, schedule: Q02DX005 (sc), vehicle: saline); 177 % of control (dose: 25.0 mg/kg/injection, schedule: Q02DX005 (sc), vehicle: saline); 152 % of control (dose: 37.0 mg/kg/injection, schedule: Q02DX005 (sc), vehicle: saline); 100 % of control and 103 % of control (dose: 50.0 mg/kg/injection, schedule: Q01DX009 (sc), vehicle: saline). The T/C (dose: 50.0 mg/kg/injection, schedule: Q02DX005 (sc), vehicle: saline) was 177 % of control; the T/C (dose: 100.0 mg/kg/injection, schedule: Q01DX009 (sc), vehicle: saline) is 105 % of control and 108 % of control; the T/C (dose: 100.0 mg/kg/injection, schedule: Q02DX005 (sc), vehicle: saline) was 150 % of control; the T/C (dose: 150.0 mg/kg/injection, schedule: Q02DX005 (sc), vehicle: saline) was 120 % of control; the T/C (dose: 200.0 mg/kg/injection, schedule: Q01DX009 (sc), vehicle: saline) is 122 % of control; the T/C (dose: 400.0 mg/kg/injection, schedule: Q01DX009 (sc), vehicle: saline) is 155 % of control. Further, the T/C (dose: 600.0 mg/kg/injection, schedule: Q02DX005 (sc), vehicle: saline) is 158 % of control.
With `CCCCCCC(=O)O[C@H]1CC[C@H]2[C@@H]3CCC4=CC(=O)CC[C@]4(C)[C@H]3CC[C@]12C`, the T/C reads like this: (dose: 5.0 mg/kg/injection, schedule: Q01DX009 (ip), vehicle: other) 101 % of control; (dose: 5.0 mg/kg/injection, schedule: Q01DX009 (sc), vehicle: other) 102 % of control and 105 % of control; (dose: 10.0 mg/kg/injection, schedule: Q01DX009 (ip), vehicle: other) 102 % of control; (dose: 10.0 mg/kg/injection, schedule: Q01DX009 (sc), vehicle: other) 100 % of control and 104 % of control; (dose: 20.0 mg/kg/injection, schedule: Q01DX009 (ip), vehicle: other) 98 % of control; (dose: 20.0 mg/kg/injection, schedule: Q01DX009 (sc), vehicle: other) 104 % of control and 105 % of control. The T/C is 104 % of control (dose: 40.0 mg/kg/injection, schedule: Q01DX009 (ip), vehicle: other); 101 % of control and 103 % of control (dose: 40.0 mg/kg/injection, schedule: Q01DX009 (sc), vehicle: other); 97 % of control and 98 % of control (dose: 80.0 mg/kg/injection, schedule: Q01DX009 (ip), vehicle: other); 94 % of control and 98 % of control (dose: 160.0 mg/kg/injection, schedule: Q01DX009 (ip), vehicle: other); 88 % of control and 104 % of control (dose: 320.0 mg/kg/injection, schedule: Q01DX009 (sc), vehicle: other); 95 % of control and 100 % of control (dose: 640.0 mg/kg/injection, schedule: Q01DX009 (sc), vehicle: other).
Regarding `COC(=O)c1[nH]c(=O)[nH]c(=O)c1F`, the T/C (dose: 5.0 mg/kg/injection, schedule: Q01DX Z (sc), vehicle: methylcellulose (MC)) is 111 % of control; the T/C (dose: 10.0 mg/kg/injection, schedule: Q01DX Z (sc), vehicle: methylcellulose (MC)) was 158 % of control; the T/C (dose: 20.0 mg/kg/injection, schedule: Q01DX Z (sc), vehicle: methylcellulose (MC)) is 164 % of control; the T/C (dose: 40.0 mg/kg/injection, schedule: Q01DX Z (sc), vehicle: methylcellulose (MC)) was 158 % of control; the T/C (dose: 80.0 mg/kg/injection, schedule: Q01DX Z (sc), vehicle: methylcellulose (MC)) was 152 % of control.
Regarding `N=[N+]=CC(=O)CCC(NC(=O)C(CCC(=O)C=[N+]=N)NC(=O)CCC(N)C(=O)O)C(=O)O` (stereo unspecified), the T/C (dose: 0.1 mg/kg/injection, schedule: Q01DX009 (ip), vehicle: water) was 94 % of control; the T/C (dose: 0.1 mg/kg/injection, schedule: Q01DX009 (sc), vehicle: water) was 95 % of control and 106 % of control; the T/C (dose: 0.2 mg/kg/injection, schedule: Q01DX009 (ip), vehicle: water) was 94 % of control; the T/C (dose: 0.2 mg/kg/injection, schedule: Q01DX009 (sc), vehicle: water) was 102 % of control; the T/C (dose: 0.4 mg/kg/injection, schedule: Q01DX009 (ip), vehicle: water) was 95 % of control; the T/C (dose: 0.4 mg/kg/injection, schedule: Q01DX009 (sc), vehicle: water) is 103 % of control. For the same molecule, the T/C is 95 % of control (dose: 0.8 mg/kg/injection, schedule: Q01DX009 (ip), vehicle: water); 101 % of control and 102 % of control (dose: 0.8 mg/kg/injection, schedule: Q01DX009 (sc), vehicle: water); 91 % of control (dose: 1.6 mg/kg/injection, schedule: Q01DX009 (ip), vehicle: water); 103 % of control and 106 % of control (dose: 1.6 mg/kg/injection, schedule: Q01DX009 (sc), vehicle: water).
Regarding `C=CC(CN1CC1)OC(C)=O` (stereo unspecified), the T/C reads like this: (dose: 2.8 mg/kg/injection, schedule: Q01DX Z (sc), vehicle: saline) 111 % of control; (dose: 4.7 mg/kg/injection, schedule: Q01DX Z (sc), vehicle: saline) 122 % of control; (dose: 7.8 mg/kg/injection, schedule: Q01DX Z (sc), vehicle: saline) 150 % of control; (dose: 13.0 mg/kg/injection, schedule: Q01DX Z (sc), vehicle: saline) 188 % of control; (dose: 22.0 mg/kg/injection, schedule: Q01DX Z (sc), vehicle: saline) 155 % of control; (dose: 60.0 mg/kg/injection, schedule: Q01DX Z (sc), vehicle: saline) 122 % of control.
